# Laboratory results reported in publication PMC8495455, “Discovery of a transdermally deliverable pentapeptide for activating AdipoR1 to promote hair growth” (EMBO Molecular Medicine, 2021).
# Test system: AMPK phosphorylation in DP cells
# Experiment: Western blot p-AMPK, DP cells
# Assay type: cell-based, human
# Conditions: P5 0 - 50 μM, APN 2.5 μg/ml
# Excerpt: Following the confirmation of the molecular interaction between AdipoR1 and P5, we evaluated the activation of the intracellular signaling pathway by P5. We investigated whether APN treatment on ORS and DP cells could activate AMPK or ERK signaling pathways, which are previously known to be downstream effectors of AdipoR1 (Mao et al, [2006]; Deepa & Dong, [2009]; Shibata et al, [2012]). […] Next, for determination of whether both P5 and APN mediates the phosphorylation of AMPK through AdipoR1 in ORS and DP cells, the cells were transfected with AdipoR1 siRNA (Appendix Fig S1). […] Collectively, P5 activates AMPK signaling pathway through AdipoR1 in ORS and DP cells in vitro.
# Human ORS and DP cells or skin tissue were lysed (RIPA lysis buffer; #20‐188; Merck Millipore). The obtained protein was then separated by 8% SDS–PAGE and transferred to a polyvinylidene fluoride membrane (Amersham). The protein transferred membranes were incubated overnight with the specific antibodies. […] Antibody‐antigen complexes detected by enhanced chemiluminescent substrate (Thermo Fisher) were captured and quantified by Amersham imager 680 systems (GE Healthcare).
substance,measurement,value
"GLYYF [P5, GST-fused (GST-P5) in pulldown assays]","Phosphorylation of AMPK, DP cells",concentration‐dependent phosphorylation of AMPK
